ChEMBL document CHEMBL1201861, “Genomics of Drug Sensitity in Cancer screening data, Wellcome Trust Sanger Institute”

System: Calu-6;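 further: growth of human Calu-6 cells, read out by a cell viability assay, IC50 marking inhibition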
Experiment: cells
Format: functional, cell-based, Homo sapiens
Conditions: Homo sapiens, Calu-6
Description: SANGER: Inhibition of human Calu-6 cell growth in a cell viability assay.

SMILES	IC50 [nM]
N#Cc1c(O)c2c(-c3ccc(-c4ccccc4O)cc3)csc2[nH]c1=O	> 1020

System: D-247MG
Experiment: cells
Format: functional, cell-based, Homo sapiens
Conditions: Homo sapiens, D-247MG
Description: SANGER: Inhibition of human D-247MG cell growth in a cell viability assay.

SMILES	IC50 [nM]
N#Cc1c(O)c2c(-c3ccc(-c4ccccc4O)cc3)csc2[nH]c1=O	> 1020

System: D-263MG
Experiment: cells
Format: functional, cell-based, Homo sapiens
Conditions: Homo sapiens, D-263MG
Description: SANGER: Inhibition of human D-263MG cell growth in a cell viability assay.

SMILES	IC50 [nM]
N#Cc1c(O)c2c(-c3ccc(-c4ccccc4O)cc3)csc2[nH]c1=O	> 1020

System: DB
Experiment: cells
Format: functional, cell-based, Homo sapiens
Conditions: Homo sapiens, DB
Description: SANGER: Inhibition of human DB cell growth in a cell viability assay.

SMILES	IC50 [nM]
N#Cc1c(O)c2c(-c3ccc(-c4ccccc4O)cc3)csc2[nH]c1=O	489

System: DMS-79;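 further: growth inhibition measured with a cell viability assay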
Experiment: cells
Format: functional, cell-based, Homo sapiens
Conditions: Homo sapiens, DMS-79
Description: SANGER: Inhibition of human DMS-79 cell growth in a cell viability assay.

SMILES	IC50 [nM]
N#Cc1c(O)c2c(-c3ccc(-c4ccccc4O)cc3)csc2[nH]c1=O	> 1020

System: DU-4475
Experiment: cells
Format: functional, cell-based, Homo sapiens
Conditions: Homo sapiens, DU-4475
Description: SANGER: Inhibition of human DU-4475 cell growth in a cell viability assay.

SMILES	IC50 [nM]
N#Cc1c(O)c2c(-c3ccc(-c4ccccc4O)cc3)csc2[nH]c1=O	> 1020

System: EW-1;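 further: growth inhibition of the human EW-1 cell line, read out by a cell viability assay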
Experiment: cells
Format: functional, cell-based, Homo sapiens
Conditions: Homo sapiens, EW-1
Description: SANGER: Inhibition of human EW-1 cell growth in a cell viability assay.

SMILES	IC50 [nM]
N#Cc1c(O)c2c(-c3ccc(-c4ccccc4O)cc3)csc2[nH]c1=O	> 1020

System: HCC2218;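 further: cell viability assay read-out, with IC50 given as the concentration that inhibits growth of the cell line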
Experiment: cells
Format: functional, cell-based, Homo sapiens
Conditions: Homo sapiens, HCC2218
Description: SANGER: Inhibition of human HCC2218 cell growth in a cell viability assay.

SMILES	IC50 [nM]
N#Cc1c(O)c2c(-c3ccc(-c4ccccc4O)cc3)csc2[nH]c1=O	342

System: HEL;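 further: growth inhibition of HEL cells, read out with a cell viability assay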
Experiment: cells
Format: functional, cell-based, Homo sapiens
Conditions: Homo sapiens, HEL
Description: SANGER: Inhibition of human HEL cell growth in a cell viability assay.

SMILES	IC50 [nM]
N#Cc1c(O)c2c(-c3ccc(-c4ccccc4O)cc3)csc2[nH]c1=O	107

System: HT
Experiment: cells
Format: functional, cell-based, Homo sapiens
Conditions: Homo sapiens, HT
Description: SANGER: Inhibition of human HT cell growth in a cell viability assay.

SMILES	IC50 [nM]
N#Cc1c(O)c2c(-c3ccc(-c4ccccc4O)cc3)csc2[nH]c1=O	335

System: HT-144
Experiment: cells
Format: functional, cell-based, Homo sapiens
Conditions: Homo sapiens, HT-144
Description: SANGER: Inhibition of human HT-144 cell growth in a cell viability assay.

SMILES	IC50 [nM]
N#Cc1c(O)c2c(-c3ccc(-c4ccccc4O)cc3)csc2[nH]c1=O	> 1020

System: HuTu80;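 further: growth inhibition of HuTu80 human cells, determined with a cell viability readout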
Experiment: cells
Format: functional, cell-based, Homo sapiens, HUTU-80
Conditions: Homo sapiens, HuTu80
Description: SANGER: Inhibition of human HUTU-80 cell growth in a cell viability assay.

SMILES	IC50 [nM]
N#Cc1c(O)c2c(-c3ccc(-c4ccccc4O)cc3)csc2[nH]c1=O	> 1020

System: JAR;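 further: growth inhibition of human JAR cells determined with a cell viability assay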
Experiment: cells
Format: functional, cell-based, Homo sapiens
Conditions: Homo sapiens, JAR
Description: SANGER: Inhibition of human JAR cell growth in a cell viability assay.

SMILES	IC50 [nM]
N#Cc1c(O)c2c(-c3ccc(-c4ccccc4O)cc3)csc2[nH]c1=O	> 1020

System: KM12;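 further: KM12 cell growth inhibition, read out with a cell viability assay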
Experiment: cells
Format: functional, cell-based, Homo sapiens
Conditions: Homo sapiens, KM12
Description: SANGER: Inhibition of human KM12 cell growth in a cell viability assay.

SMILES	IC50 [nM]
N#Cc1c(O)c2c(-c3ccc(-c4ccccc4O)cc3)csc2[nH]c1=O	32.1

System: LB996-RCC
Experiment: cells
Format: functional, cell-based, Homo sapiens
Conditions: Homo sapiens, LB996-RCC
Description: SANGER: Inhibition of human LB996-RCC cell growth in a cell viability assay.

SMILES	IC50 [nM]
N#Cc1c(O)c2c(-c3ccc(-c4ccccc4O)cc3)csc2[nH]c1=O	> 1020

System: LC-2-ad;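 further: growth inhibition of human LC-2-ad cells, read out with a cell viability assay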
Experiment: cells
Format: functional, cell-based, Homo sapiens
Conditions: Homo sapiens, LC-2-ad
Description: SANGER: Inhibition of human LC-2-ad cell growth in a cell viability assay.

SMILES	IC50 [nM]
N#Cc1c(O)c2c(-c3ccc(-c4ccccc4O)cc3)csc2[nH]c1=O	> 1020

System: LNCaP-Clone-FGC
Experiment: cells
Format: functional, cell-based, Homo sapiens
Conditions: Homo sapiens, LNCaP-Clone-FGC
Description: SANGER: Inhibition of human LNCaP-Clone-FGC cell growth in a cell viability assay.

SMILES	IC50 [nM]
N#Cc1c(O)c2c(-c3ccc(-c4ccccc4O)cc3)csc2[nH]c1=O	547

System: MZ1-PC;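 further: cell viability assay measuring growth inhibition of human MZ1-PC cells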
Experiment: cells
Format: functional, cell-based, Homo sapiens
Conditions: Homo sapiens, MZ1-PC
Description: SANGER: Inhibition of human MZ1-PC cell growth in a cell viability assay.

SMILES	IC50 [nM]
N#Cc1c(O)c2c(-c3ccc(-c4ccccc4O)cc3)csc2[nH]c1=O	> 1020

System: MZ7-mel;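 further: growth inhibition of human MZ7-mel cells, measured by a cell viability assay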
Experiment: cells
Format: functional, cell-based, Homo sapiens
Conditions: Homo sapiens, MZ7-mel
Description: SANGER: Inhibition of human MZ7-mel cell growth in a cell viability assay.

SMILES	IC50 [nM]
N#Cc1c(O)c2c(-c3ccc(-c4ccccc4O)cc3)csc2[nH]c1=O	> 1020

System: NB10;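 further: growth inhibition of NB10 cells, read out by a cell viability assay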
Experiment: cells
Format: functional, cell-based, Homo sapiens
Conditions: Homo sapiens, NB10
Description: SANGER: Inhibition of human NB10 cell growth in a cell viability assay.

SMILES	IC50 [nM]
N#Cc1c(O)c2c(-c3ccc(-c4ccccc4O)cc3)csc2[nH]c1=O	> 1020

System: NB5;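 further: growth inhibition of NB5 cells, read out as cell viability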
Experiment: cells
Format: functional, cell-based, Homo sapiens
Conditions: Homo sapiens, NB5
Description: SANGER: Inhibition of human NB5 cell growth in a cell viability assay.

SMILES	IC50 [nM]
N#Cc1c(O)c2c(-c3ccc(-c4ccccc4O)cc3)csc2[nH]c1=O	> 1020

System: NCI-H1092;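 further: cell growth inhibition measured with a cell viability assay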
Experiment: cells
Format: functional, cell-based, Homo sapiens
Conditions: Homo sapiens, NCI-H1092
Description: SANGER: Inhibition of human NCI-H1092 cell growth in a cell viability assay.

SMILES	IC50 [nM]
N#Cc1c(O)c2c(-c3ccc(-c4ccccc4O)cc3)csc2[nH]c1=O	541

System: NCI-H2126;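 further: growth inhibition of the cancer cell line, determined with a cell viability readout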
Experiment: cells
Format: functional, cell-based, Homo sapiens
Conditions: Homo sapiens, NCI-H2126
Description: SANGER: Inhibition of human NCI-H2126 cell growth in a cell viability assay.

SMILES	IC50 [nM]
N#Cc1c(O)c2c(-c3ccc(-c4ccccc4O)cc3)csc2[nH]c1=O	> 1020

System: NCI-H226;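 further: cell viability read-out used to gauge growth inhibition of the cells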
Experiment: cells
Format: functional, cell-based, Homo sapiens
Conditions: Homo sapiens, NCI-H226
Description: SANGER: Inhibition of human NCI-H226 cell growth in a cell viability assay.

SMILES	IC50 [nM]
N#Cc1c(O)c2c(-c3ccc(-c4ccccc4O)cc3)csc2[nH]c1=O	407

System: NCI-H446;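 further: growth inhibition of NCI-H446 cells determined by a cell viability assay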
Experiment: cells
Format: functional, cell-based, Homo sapiens
Conditions: Homo sapiens, NCI-H446
Description: SANGER: Inhibition of human NCI-H446 cell growth in a cell viability assay.

SMILES	IC50 [nM]
N#Cc1c(O)c2c(-c3ccc(-c4ccccc4O)cc3)csc2[nH]c1=O	> 1020

System: NCI-H69;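 further: growth inhibition of the cell line, read out with a cell viability assay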
Experiment: cells
Format: functional, cell-based, Homo sapiens
Conditions: Homo sapiens, NCI-H69
Description: SANGER: Inhibition of human NCI-H69 cell growth in a cell viability assay.

SMILES	IC50 [nM]
N#Cc1c(O)c2c(-c3ccc(-c4ccccc4O)cc3)csc2[nH]c1=O	> 1020

System: SNU-5;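 further: cell viability readout used to measure growth inhibition in human NCI-SNU-5 cells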
Experiment: cells
Format: functional, cell-based, Homo sapiens
Conditions: Homo sapiens, SNU-5
Description: SANGER: Inhibition of human NCI-SNU-5 cell growth in a cell viability assay.

SMILES	IC50 [nM]
N#Cc1c(O)c2c(-c3ccc(-c4ccccc4O)cc3)csc2[nH]c1=O	944

System: NH-12;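 further: growth inhibition of NH-12 cells, read out with a cell viability assay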
Experiment: cells
Format: functional, cell-based, Homo sapiens
Conditions: Homo sapiens, NH-12
Description: SANGER: Inhibition of human NH-12 cell growth in a cell viability assay.

SMILES	IC50 [nM]
N#Cc1c(O)c2c(-c3ccc(-c4ccccc4O)cc3)csc2[nH]c1=O	36.9

System: QIMR-WIL;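 further: growth inhibition of QIMR-WIL cells, read out with a cell viability assay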
Experiment: cells
Format: functional, cell-based, Homo sapiens
Conditions: Homo sapiens, QIMR-WIL
Description: SANGER: Inhibition of human QIMR-WIL cell growth in a cell viability assay.

SMILES	IC50 [nM]
N#Cc1c(O)c2c(-c3ccc(-c4ccccc4O)cc3)csc2[nH]c1=O	36.4

System: RS4-11;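 further: growth inhibition of RS4-11 cells, read out by a cell viability assay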
Experiment: cells
Format: functional, cell-based, Homo sapiens
Conditions: Homo sapiens, RS4-11
Description: SANGER: Inhibition of human RS4-11 cell growth in a cell viability assay.

SMILES	IC50 [nM]
N#Cc1c(O)c2c(-c3ccc(-c4ccccc4O)cc3)csc2[nH]c1=O	85.7

System: RXF 393;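 further: growth inhibition of human RXF 393 cells, read out with a cell viability assay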
Experiment: cells
Format: functional, cell-based, Homo sapiens
Conditions: Homo sapiens, RXF 393
Description: SANGER: Inhibition of human RXF393 cell growth in a cell viability assay.

SMILES	IC50 [nM]
N#Cc1c(O)c2c(-c3ccc(-c4ccccc4O)cc3)csc2[nH]c1=O	> 1020

System: Ramos-2G6-4C10;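 further: growth inhibition of the cell line, measured by a cell viability read-out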
Experiment: cells
Format: functional, cell-based, Homo sapiens
Conditions: Homo sapiens, Ramos-2G6-4C10
Description: SANGER: Inhibition of human Ramos-2G6-4C10 cell growth in a cell viability assay.

SMILES	IC50 [nM]
N#Cc1c(O)c2c(-c3ccc(-c4ccccc4O)cc3)csc2[nH]c1=O	172

System: SCH;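 further: growth inhibition of human SCH cells, read out in a cell viability assay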
Experiment: cells
Format: functional, cell-based, Homo sapiens
Conditions: Homo sapiens, SCH
Description: SANGER: Inhibition of human SCH cell growth in a cell viability assay.

SMILES	IC50 [nM]
N#Cc1c(O)c2c(-c3ccc(-c4ccccc4O)cc3)csc2[nH]c1=O	> 1020

System: SJSA-1;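 further: growth inhibition of human SJSA-1 cells, read out through a cell viability measurement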
Experiment: cells
Format: functional, cell-based, Homo sapiens
Conditions: Homo sapiens, SJSA-1
Description: SANGER: Inhibition of human SJSA-1 cell growth in a cell viability assay.

SMILES	IC50 [nM]
N#Cc1c(O)c2c(-c3ccc(-c4ccccc4O)cc3)csc2[nH]c1=O	> 1020

System: SK-LMS-1;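 further: growth inhibition of human SK-LMS-1 cells, read out with a cell viability assay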
Experiment: cells
Format: functional, cell-based, Homo sapiens
Conditions: Homo sapiens, SK-LMS-1
Description: SANGER: Inhibition of human SK-LMS-1 cell growth in a cell viability assay.

SMILES	IC50 [nM]
N#Cc1c(O)c2c(-c3ccc(-c4ccccc4O)cc3)csc2[nH]c1=O	> 1020

System: SK-MEL-2;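 further: growth inhibition of human SK-MEL-2 cells measured with a cell viability assay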
Experiment: cells
Format: functional, cell-based, Homo sapiens
Conditions: Homo sapiens, SK-MEL-2
Description: SANGER: Inhibition of human SK-MEL-2 cell growth in a cell viability assay.

SMILES	IC50 [nM]
N#Cc1c(O)c2c(-c3ccc(-c4ccccc4O)cc3)csc2[nH]c1=O	> 1020

System: SK-PN-DW;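 further: growth inhibition measured with a viability assay on these cells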
Experiment: cells
Format: functional, cell-based, Homo sapiens
Conditions: Homo sapiens, SK-PN-DW
Description: SANGER: Inhibition of human SK-PN-DW cell growth in a cell viability assay.

SMILES	IC50 [nM]
N#Cc1c(O)c2c(-c3ccc(-c4ccccc4O)cc3)csc2[nH]c1=O	> 1020

System: SW684;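 further: growth inhibition of human SW684 cells, measured by a cell viability assay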
Experiment: cells
Format: functional, cell-based, Homo sapiens
Conditions: Homo sapiens, SW684
Description: SANGER: Inhibition of human SW684 cell growth in a cell viability assay.

SMILES	IC50 [nM]
N#Cc1c(O)c2c(-c3ccc(-c4ccccc4O)cc3)csc2[nH]c1=O	> 1020

System: A498;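 further: growth inhibition of human A498 cells, read out with a cell viability assay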
Experiment: cells
Format: functional, cell-based, Homo sapiens
Conditions: Homo sapiens, A498
Description: SANGER: Inhibition of human A498 cell growth in a cell viability assay.

SMILES	IC50 [nM]
N#Cc1c(O)c2c(-c3ccc(-c4ccccc4O)cc3)csc2[nH]c1=O	> 1020

System: ACN;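 further: growth inhibition of the human ACN cell line, read out via cell viability testing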
Experiment: cells
Format: functional, cell-based, Homo sapiens
Conditions: Homo sapiens, ACN
Description: SANGER: Inhibition of human ACN cell growth in a cell viability assay.

SMILES	IC50 [nM]
N#Cc1c(O)c2c(-c3ccc(-c4ccccc4O)cc3)csc2[nH]c1=O	> 1020

System: AM-38;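 further: growth inhibition of AM-38 cells of human origin, read out by a cell viability assay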
Experiment: cells
Format: functional, cell-based, Homo sapiens
Conditions: Homo sapiens, AM-38
Description: SANGER: Inhibition of human AM-38 cell growth in a cell viability assay.

SMILES	IC50 [nM]
N#Cc1c(O)c2c(-c3ccc(-c4ccccc4O)cc3)csc2[nH]c1=O	64.4

System: BT-474
Experiment: cells
Format: functional, cell-based, Homo sapiens
Conditions: Homo sapiens, BT-474
Description: SANGER: Inhibition of human BT-474 cell growth in a cell viability assay.

SMILES	IC50 [nM]
N#Cc1c(O)c2c(-c3ccc(-c4ccccc4O)cc3)csc2[nH]c1=O	151

System: Becker;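 further: growth inhibition of Becker cells, read out with a cell viability assay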
Experiment: cells
Format: functional, cell-based, Homo sapiens
Conditions: Homo sapiens, Becker
Description: SANGER: Inhibition of human Becker cell growth in a cell viability assay.

SMILES	IC50 [nM]
N#Cc1c(O)c2c(-c3ccc(-c4ccccc4O)cc3)csc2[nH]c1=O	> 1020

System: C8166;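 further: growth inhibition of human C8166 cells measured by a cell viability assay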
Experiment: cells
Format: functional, cell-based, Homo sapiens
Conditions: Homo sapiens, C8166
Description: SANGER: Inhibition of human C8166 cell growth in a cell viability assay.

SMILES	IC50 [nM]
N#Cc1c(O)c2c(-c3ccc(-c4ccccc4O)cc3)csc2[nH]c1=O	66.2

System: TE-10;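 further: growth inhibition of TE-10 cells, measured by a cell viability assay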
Experiment: cells
Format: functional, cell-based, Homo sapiens
Conditions: Homo sapiens, TE-10
Description: SANGER: Inhibition of human TE-10 cell growth in a cell viability assay.

SMILES	IC50 [nM]
N#Cc1c(O)c2c(-c3ccc(-c4ccccc4O)cc3)csc2[nH]c1=O	> 1020

System: TE-6;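 further: growth inhibition of TE-6 cells, read out with a cell viability assay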
Experiment: cells
Format: functional, cell-based, Homo sapiens
Conditions: Homo sapiens, TE-6
Description: SANGER: Inhibition of human TE-6 cell growth in a cell viability assay.

SMILES	IC50 [nM]
N#Cc1c(O)c2c(-c3ccc(-c4ccccc4O)cc3)csc2[nH]c1=O	> 1020

System: TE-9;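 further: cell growth inhibition, measured with a cell viability readout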
Experiment: cells
Format: functional, cell-based, Homo sapiens
Conditions: Homo sapiens, TE-9
Description: SANGER: Inhibition of human TE-9 cell growth in a cell viability assay.

SMILES	IC50 [nM]
N#Cc1c(O)c2c(-c3ccc(-c4ccccc4O)cc3)csc2[nH]c1=O	> 1020

System: U-87 MG;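 further: growth inhibition of the cells measured with a viability assay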
Experiment: cells
Format: functional, cell-based, Homo sapiens, U-87MG ATCC
Conditions: Homo sapiens, U-87 MG
Description: SANGER: Inhibition of human U-87-MG cell growth in a cell viability assay.

SMILES	IC50 [nM]
N#Cc1c(O)c2c(-c3ccc(-c4ccccc4O)cc3)csc2[nH]c1=O	333

System: UACC-257
Experiment: cells
Format: functional, cell-based, Homo sapiens
Conditions: Homo sapiens, UACC-257
Description: SANGER: Inhibition of human UACC-257 cell growth in a cell viability assay.

SMILES	IC50 [nM]
N#Cc1c(O)c2c(-c3ccc(-c4ccccc4O)cc3)csc2[nH]c1=O	> 1020
